The supplement of paper PMC10307832

Legend:
Test in all cases: relative viability (nuclei count vs DMSO), 5 days (fraction); higher = more cells survive
[1] = compound: CN1CCC(CC1)OC2=CC(=C(C=C2)NC3=NC=C4C(=N3)N(C(=O)N4C)C5CCCC5)OC [AZ3146] + CC(=O)c1c(C)c2cnc(Nc3ccc(N4CCNCC4)cn3)nc2n(C2CCCC2)c1=O [Palbociclib] (partner 0.5 µM)
Summary of the method: (§1)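 After 5 days of treatment, lung cancer cells in 1536-well plates were fixed and stained in a single step (final 0.05% Triton X-100, 1% formaldehyde, 1 ug/ml Hoechst) and their nuclei counted on 4× images. Treatment had been applied by pin tool the day after seeding as one drug alone or as a fixed anchor-drug dose with five library-drug doses (not always all listed) in √10 steps. Relative viability is the nuclei count of treated wells divided by that of vehicle wells, and values are medians of duplicate plates.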

[2] = compound: CN1CCC(CC1)OC2=CC(=C(C=C2)NC3=NC=C4C(=N3)N(C(=O)N4C)C5CCCC5)OC [AZ3146] + NC(=O)Nc1cc(-c2cccc(F)c2)sc1C(=O)N[C@H]1CCCNC1 [AZD7762] (partner 0.2 µM)
Summary of the method: as §1

[3] = compound: CCOC(=O)CCNc1cc(N2CCc3ccccc3CC2)nc(-c2ccccn2)n1 [GSK-J4] + Cc1nc(NC(=O)N2CCC[C@H]2C(N)=O)sc1-c1ccnc(C(C)(C)C(F)(F)F)c1 [Alpelisib] (partner 2 µM)
Summary of the method: as §1

[4] = compound: CN1CCC(CC1)OC2=CC(=C(C=C2)NC3=NC=C4C(=N3)N(C(=O)N4C)C5CCCC5)OC [AZ3146] + CC(C)C[C@H](NC(=O)[C@H](Cc1ccccc1)NC(=O)c1cnccn1)B(O)O [Bortezomib] (partner 0.002 µM)
Summary of the method: as §1

Cell Line	relative viability ([1]; first compound 0.08 µM)	relative viability ([1]; first compound 0.253 µM)	relative viability ([1]; first compound 0.8 µM)	relative viability ([1]; first compound 2.53 µM)	relative viability ([1]; first compound 8 µM)	relative viability ([2]; first compound 0.08 µM)	relative viability ([2]; first compound 0.253 µM)	relative viability ([2]; first compound 0.8 µM)	relative viability ([2]; first compound 2.53 µM)	relative viability ([2]; first compound 8 µM)	relative viability ([3]; first compound 0.5 µM)	relative viability ([3]; first compound 5 µM)	relative viability ([3]; first compound 15.81 µM)	relative viability ([3]; first compound 50 µM)	relative viability ([4]; first compound 0.08 µM)	relative viability ([4]; first compound 0.253 µM)	relative viability ([4]; first compound 0.8 µM)	relative viability ([4]; first compound 2.53 µM)	relative viability ([4]; first compound 8 µM)	relative viability ([3]; first compound 1.581 µM)
EPLC-272H	0.327	0.342	0.309	0.338	0.27	0.136	0.199	0.175	0.24	0.237	0.887	0.845	0.933	0.943	0.754	0.968	0.879	0.97	1.03	–
ABC-1	0.432	0.736	0.751	0.851	0.573	0.756	0.717	0.829	0.893	1	1.2	1.04	0.971	0.735	0.28	0.398	0.247	0.239	0.356	0.898
NCI-H1437	0.311	0.29	0.303	0.314	0.27	0.887	1.2	1.09	1.14	1.1	0.904	0.908	0.873	0.428	0.497	0.441	0.469	0.535	0.479	0.979
EKVX	0.406	0.373	0.284	0.431	0.368	0.506	0.773	0.541	0.787	0.824	0.848	0.952	0.824	0.776	1.03	1.07	1.11	1.04	1.26	0.769
NCI-H3122	0.179	0.19	0.228	0.23	0.19	1.01	0.933	0.966	1.06	0.973	0.78	0.95	0.716	0.674	1.08	1	0.997	0.999	1.07	0.634
NCI-H460	0.088	0.139	0.139	0.161	0.0649	0.461	0.744	0.522	0.546	0.559	0.54	0.554	0.456	0.433	1.14	0.92	1.02	0.97	0.543	0.377
PC-3 [JPC-3]	0.505	–	0.47	0.555	0.482	0.734	–	0.797	0.813	0.754	0.984	1.06	0.997	0.848	0.806	0.84	0.83	0.959	0.859	0.961
HCC-15	0.757	0.668	0.727	0.738	0.68	1.27	1.1	1.33	1.1	1.16	0.909	0.912	0.868	0.571	1.01	1.08	1.02	1.12	1.04	0.751
NCI-H1975	0.534	0.548	0.562	0.552	0.309	0.628	–	0.752	0.778	0.638	0.615	–	0.678	0.837	0.36	0.425	0.383	0.384	0.256	0.613
NCI-H727	0.663	0.624	0.675	0.627	0.659	0.642	0.575	0.562	0.568	0.57	0.549	0.894	0.621	0.264	1.02	0.953	0.717	0.934	1.18	–
201T	0.327	0.359	0.382	0.348	0.347	0.534	0.643	0.634	0.553	0.594	0.977	1.02	0.988	0.9	1.1	1.07	1.11	1.16	1.12	0.831
HCC-827	0.544	0.471	0.467	0.421	0.516	0.154	0.17	0.188	0.212	0.213	0.981	1.02	0.915	0.939	0.933	1.07	1.11	1.09	1.09	1
NCI-H650	0.303	0.343	0.234	0.363	0.27	0.915	0.652	0.952	1.06	1.21	0.926	0.729	1.07	0.767	0.519	0.691	0.762	0.999	0.897	1.11
HARA	0.274	0.239	0.266	0.241	0.243	0.189	0.416	0.344	0.21	0.169	0.815	–	0.785	0.646	1.04	1.15	1.15	1.14	0.533	0.441
NCI-H2087	0.181	0.235	0.244	0.267	0.206	1.18	1.36	1.22	1.38	1.16	0.988	–	0.933	0.745	0.676	0.908	0.734	0.955	0.916	1.17
NCI-H2405	0.516	0.546	0.504	0.505	0.508	0.838	0.771	0.702	0.589	0.618	0.814	–	0.897	0.935	1.02	1	0.944	0.994	1.11	0.619

Cell Line	relative viability ([1]; first compound 0.08 µM)	relative viability ([1]; first compound 0.253 µM)	relative viability ([1]; first compound 0.8 µM)	relative viability ([1]; first compound 2.53 µM)	relative viability ([1]; first compound 8 µM)	relative viability ([2]; first compound 0.08 µM)	relative viability ([2]; first compound 0.253 µM)	relative viability ([2]; first compound 0.8 µM)	relative viability ([2]; first compound 2.53 µM)	relative viability ([2]; first compound 8 µM)	relative viability ([3]; first compound 0.5 µM)	relative viability ([3]; first compound 5 µM)	relative viability ([3]; first compound 15.81 µM)	relative viability ([3]; first compound 50 µM)	relative viability ([4]; first compound 0.08 µM)	relative viability ([4]; first compound 0.253 µM)	relative viability ([4]; first compound 0.8 µM)	relative viability ([4]; first compound 2.53 µM)	relative viability ([4]; first compound 8 µM)	relative viability ([3]; first compound 1.581 µM)
NCI-H647	0.356	0.364	0.357	0.346	0.367	0.272	0.541	0.486	0.342	0.326	1.22	0.927	1.05	0.975	0.918	0.941	0.996	1.21	0.405	1.03
EMC-BAC-2	0.466	0.519	0.555	0.53	0.514	0.94	1.09	1.25	0.998	1.07	0.755	0.785	0.716	0.691	1.03	1.03	1.19	1.12	1.15	0.717
H3255	0.331	0.294	0.311	0.344	0.332	0.863	0.837	0.768	0.825	0.841	0.591	0.614	0.593	0.531	0.757	0.627	0.825	0.835	0.792	0.64
NCI-H1651	0.486	0.532	0.53	0.526	0.497	0.277	0.382	0.351	0.398	0.385	0.888	0.957	0.93	0.892	0.827	1.02	0.995	0.921	0.969	0.814
NCI-H23	0.503	0.515	0.494	0.513	0.473	0.157	0.3	0.27	0.216	0.163	0.781	0.892	0.605	0.604	1.15	1.08	1.21	1.11	0.876	–
NCI-H1355	0.396	0.402	0.405	0.406	0.388	0.621	0.738	0.676	0.672	0.551	0.761	0.857	0.762	0.757	1.09	1.19	1.17	1.25	1.28	0.741
NCI-H2085	0.489	0.472	0.475	0.497	0.432	0.912	0.974	0.95	1.04	0.708	0.894	0.888	0.898	0.789	1	1.09	0.962	1.18	0.952	0.863
NCI-H322M	0.475	0.465	0.461	0.518	0.471	0.595	0.529	0.581	0.825	0.506	0.901	0.734	0.747	0.733	1.29	1.18	1.18	1.29	1.18	0.718
NCI-H1915	0.431	0.571	0.564	0.573	0.491	0.673	0.714	0.75	0.729	0.745	0.972	1.04	0.99	1.01	0.933	1.01	0.502	0.955	0.973	0.97
HOP-62	0.357	0.5	0.438	0.436	0.447	0.276	0.61	0.485	0.582	0.791	0.956	1.12	0.912	0.859	0.401	0.967	0.694	0.851	0.44	1.01
LXF-289	0.574	0.603	0.564	0.595	0.579	1.02	1.16	1.05	1.1	1.05	0.971	1.04	0.991	0.956	0.996	1.02	0.978	1.01	0.908	0.957
LCLC-103H	0.415	0.458	0.495	0.446	0.444	0.623	0.714	0.767	0.789	0.831	0.934	1.09	0.986	1.11	0.993	1.03	1	0.994	0.965	0.859
NCI-H441	0.216	0.199	0.211	0.265	0.204	1.08	1.31	1.14	1.09	0.949	0.741	0.475	0.736	0.57	0.394	0.743	0.602	1.02	0.346	0.521
BEN	–	0.47	0.511	0.479	0.471	–	0.608	0.668	0.589	0.68	1.04	–	0.974	0.948	–	0.588	0.752	0.762	0.726	0.882
NCI-H1755	0.414	0.427	0.434	0.479	0.431	0.502	0.482	0.455	0.445	0.519	0.897	1.02	0.915	0.852	1.03	0.996	0.921	1.04	0.667	0.763
LOU-NH91	0.513	0.582	0.512	0.539	0.537	0.778	0.755	0.802	0.775	0.743	0.743	0.649	0.688	0.672	1.02	0.489	0.533	0.478	0.51	0.689
